# How the values were obtained:
# MDA-MB-231 cells = test: Cell growth/viability assay with tetrazolium salt WST-8 (OD 450 nm); conditions: MDA-MB-231 (ER-negative); after 6 days of incubation
# Description: Cultures of MDA-MB-231 cells were maintained at 37° C. in minimum essential medium containing 3.7 g of NaHCO3 per liter of water, supplemented with 10% (v/v) Fetal Bovine Serum and 1% Penicillin/Streptomycin (broad spectrum antibiotics). […] The media were equilibrated with a humidified atmosphere of 5% CO2. Stock cultures were seeded at a density of 200×10^3 cells/mL and allowed to multiply to confluence. The cells were grown at 37° C. in a humidified atmosphere containing 5% CO2 and passaged when confluent using 0.25% trypsin.
# The same amount of ethanol was added to the control samples. Stock solutions were maintained at 4° C.
# Cell viability assays. The first method employs a novel tetrazolium salt, WST-8 [2-methoxy-4-nitrophenyl)-3(4-nitrophenyl)-5-(2,4-disulphophenyl)-2-H-tetrazolium, monosodium salt] which produces a highly water-soluble formazan dye generated by dehydrogenases which are active in living cells in a culture medium. For initial growth assays, cell suspensions (5000 cells/100 μL/well) were dispensed onto 96-well microtiter plates and incubated at 37° C., 5% CO2 for 1-12 days. At distinct time intervals 10 μL of the WST-8 solution was added to each well and allowed to incubate for 2-4 hrs. A yellow formazan dye is developed only in living cells. […] The absorbance at 450 nm was measured using a microplate reader (EMS Reader with dispenser, Genesys Software) with a reference wavelength at 600 nm. […] For both methods, cell suspensions (5000 cells/100 μ□L culture media) were initially inoculated on a 96-well microplate and preincubated in an incubator for 48 hrs to allow attachment 10 μL of the stock solution of each compound was added so that the final concentration was equimolar for each compound corresponding to 10 µg/mL of VES.
# Comparison of the effect of the different compounds on absorbance at the appropriate wavelength was made by analysis of variance (ANOVA).
# Cells were seeded in triplicate in 96-well plates and incubated for 48 hrs to allow attachment. The different compounds were added at the indicated concentrations and allowed to incubate for an additional 4 days. The indicated incubation time previously was determined in a growth assay ats the time of maximal proliferation rate. Tetrazolium salt WST-8 (10 μL) was added to each well, the cells were allowed to incubate for 2 hours and optical density (OD) measurements of the yellow formazan dye were made at 450 nm.
# MCF-7 cells [1] = test: Cell viability assay, crystal violet staining (OD620 of cell lysates); conditions: for OD620 of the cell lysates (crystal violet) / statistical significance of decrease in cell growth / effect on cell growth compared to control (FIG. 1): MCF-7; for OD620 of the cell lysates (crystal violet): equimolar concentrations corresponding to 10 μg/mL of VES; for statistical significance of decrease in cell growth: Day 7, day of maximal proliferation rate; for effect on cell growth compared to control (FIG. 1): equimolar concentrations
# Description: (§1) Experimental media. […] Stock solutions were maintained at 4° C.
# Cells were plated in triplicate in 96-well plates and allowed to attaach and reach confluence for 48 hours. On Day 2 test compounds were added at equimolar concentrations corresponding to 10 μg/mL of VES. Cell viability was determined at the specified times by staining with crystal violet and measuring the OD620 of the cell lysates.
# [2] = Chemical stability (solid state, organic solvent, aqueous base by 1H NMR); type: physicochemical; conditions: pH=9, room temperature, one day
# MCF-7 cells [3] = test: Cell growth/viability assay with tetrazolium salt WST-8 (OD 450 nm); conditions: for inhibitory effect on cell viability (FIG. 2), in words: equimolar concentrations, incubation up to 10 days
# Description: as §1
# Equimolar concentrations of the different compounds were added on day 2 and allowed for incubation for the indicated time period.
# [4] = Stability in the culture media by TLC
# [5] = Day 0, equimolar concentrations, added on day 2
# [6] = Day 2, equimolar concentrations
# [7] = Day 4, equimolar concentrations
# [8] = Day 7, equimolar concentrations
# [9] = Day 9, equimolar concentrations
# [10] = Day 11, equimolar concentrations
Structure (SMILES),inhibition of cell growth (MDA-MB-231 cells) [%],cytotoxic effect on MCF-7 cells (MCF-7 cells [1]; 3.26 μg/mL (equimolar to 10 μg/mL of VES)) [%],"OD620 of the cell lysates (crystal violet) (MCF-7 cells [1]; Day 0, added on Day 2)",OD620 of the cell lysates (crystal violet) (MCF-7 cells [1]; Day 2),OD620 of the cell lysates (crystal violet) (MCF-7 cells [1]; Day 5),statistical significance of decrease in cell growth (MCF-7 cells [1]),OD620 of the cell lysates (crystal violet) (MCF-7 cells [1]; Day 7),OD620 of the cell lysates (crystal violet) (MCF-7 cells [1]; Day 9),decomposition of aqueous solution (1H NMR) [2],optical density (OD) of formazan dye at 450 nm (WST-8) (MCF-7 cells [3]; [5]),optical density (OD) of formazan dye at 450 nm (WST-8) (MCF-7 cells [3]; [6]),optical density (OD) of formazan dye at 450 nm (WST-8) (MCF-7 cells [3]; [7]),optical density (OD) of formazan dye at 450 nm (WST-8) (MCF-7 cells [3]; [8]),optical density (OD) of formazan dye at 450 nm (WST-8) (MCF-7 cells [3]; [9]),optical density (OD) of formazan dye at 450 nm (WST-8) (MCF-7 cells [3]; [10]),"inhibitory effect on cell viability (FIG. 2), in words (MCF-7 cells [3])",effect on cell growth compared to control (FIG. 1) (MCF-7 cells [1]),stability in the culture media (TLC) [4],"cytotoxicity, in words (MCF-7 cells [3]; concentration equivalent to IC50)"
"O=c1[nH]cc(F)c(=O)[nH]1 [5-FU, 5-fluorouracil, reference compound]",31,,,,,,,,,,,,,,,,,,
"O=[Se](=O)([O-])[O-].[Na+].[Na+] [Na Selenate, sodium selenate, reference compound]",,100,0,0.07344,0.06117,statistically significant decrease in cell growth,0.082,0.05411,,,,,,,,,,,
"O=C(O)CC([Se]c1ccccc1)C(=O)O (stereo not shown) [PSSA, phenylselanyl-succinic acid]",31,,0,0.3842,1.218,,1.693,1.495,less than 5%,0,0.9149,2.019,3.618,3.541,3.451,no inhibitory effect over the first 7 days of incubation,no measurable effect compared to control,stable for more than one weak,
"Cc1c(C)c2c(c(C)c1OC(=O)C(CC(=O)O)[Se]c1ccccc1)CC[C@@](C)(CCC[C@H](C)CCC[C@H](C)CCCC(C)C)O2 (stereo partly drawn) [PSSA-α-Toc, 2-phenylselanyl-succinic acid RRR-α-tocopherol ester]",65,,0,0.325,0.9504,statistically significant decrease in cell growth,1.227,1.162,,0,0.7806,1.4215,2.998,2.812,2.105,most potent inhibitory effect throughout the culture period,inhibited cell growth much more effectively,stable for more than one weak,not cytotoxic
"Cc1c(C)c2c(c(C)c1OC(=O)CCC(=O)O)CC[C@@](C)(CCC[C@H](C)CCC[C@H](C)CCCC(C)C)O2 [VES, RRR-α-tocopheryl succinate, reference compound]",44,,,,,,,,,0,0.8005,1.439,3.311,3.427,2.99,inhibited cell growth more effectively during the first 7 days of incubation,,,

# Reference: patent US6716873B1, “Tocopherol ester compounds” (Yasoo Health Inc., priority 2003, dated 2004)
